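GI50 = concentration required for 50% inhibition of growth. TGI denotes the concentration required for complete inhibition of growth.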
What was measured:
Experiment in all cases: growth of human tumour cells (NCI), 384-well format
LOX IMVI melanoma = test system: LOX IMVI melanoma
HCT-15 colon = test system: HCT-15 colon
UACC-62 melanoma = test system: UACC-62 melanoma
NCI-H522 lung = test system: NCI-H522 lung
SK-OV-3 ovarian = test system: SK-OV-3 ovarian
DU-145 prostate = test system: DU-145 prostate
MCF7 breast = test system: MCF7 breast
HT29 colon = test system: HT29 colon
SN12C renal = test system: SN12C renal
NCI-H460 NSCLC = test system: NCI-H460 NSCLC
CCRF-CEM leukemia = test system: CCRF-CEM leukemia
M14 melanoma = test system: M14 melanoma
HOP-62 NSCLC = test system: HOP-62 NSCLC
MDA-MB-435 melanoma = test system: MDA-MB-435 melanoma
SNB-19 CNS = test system: SNB-19 CNS
SK-MEL-5 melanoma = test system: SK-MEL-5 melanoma
786-0 renal = test system: 786-0 renal
T-47D breast = test system: T-47D breast
HOP-92 NSCLC = test system: HOP-92 NSCLC
NCI-H23 lung = test system: NCI-H23 lung
HCT-116 colon = test system: HCT-116 colon
MDA-MB-231 breast = test system: MDA-MB-231 breast
SW-620 colon = test system: SW-620 colon
K-562 leukemia = test system: K-562 leukemia
IGROV1 ovarian = test system: IGROV1 ovarian
KM12 colon = test system: KM12 colon
RPMI-8226 leukemia = test system: RPMI-8226 leukemia
CAKI-1 renal = test system: CAKI-1 renal
UACC-257 melanoma = test system: UACC-257 melanoma
EKVX NSCLC = test system: EKVX NSCLC
UO-31 renal = test system: UO-31 renal
MALME-3M melanoma = test system: MALME-3M melanoma
MDA-MB-468 breast = test system: MDA-MB-468 breast
ACHN renal = test system: ACHN renal
SF-268 CNS = test system: SF-268 CNS
A549 NSCLC = test system: A549 NSCLC
HL-60(TB) leukemia = test system: HL-60(TB) leukemia
SK-MEL-2 melanoma = test system: SK-MEL-2 melanoma
SF-295 CNS = test system: SF-295 CNS
NCI-H226 lung = test system: NCI-H226 lung
MOLT-4 leukemia = test system: MOLT-4 leukemia
OVCAR-4 ovarian = test system: OVCAR-4 ovarian
BT-549 breast = test system: BT-549 breast
NCI/ADR-RES ovarian = test system: NCI/ADR-RES ovarian
SF-539 CNS = test system: SF-539 CNS
U251 glioblastoma = test system: U251 glioblastoma
SR leukemia = test system: SR leukemia
NCI-H322M lung = test system: NCI-H322M lung
TK-10 renal = test system: TK-10 renal
SNB-75 CNS = test system: SNB-75 CNS
A498 renal = test system: A498 renal
OVCAR-5 ovarian = test system: OVCAR-5 ovarian
OVCAR-3 ovarian = test system: OVCAR-3 ovarian
COLO 205 colon = test system: COLO 205 colon
HS 578T breast = test system: HS 578T breast
SK-MEL-28 melanoma = test system: SK-MEL-28 melanoma
PC-3 prostate = test system: PC-3 prostate
HCC-2998 colon = test system: HCC-2998 colon
RXF 393 renal = test system: RXF 393 renal

## O=C(Nc1ccccc1/C=C/c1n[nH]c2ccccc12)c1ccccc1
LOX IMVI melanoma
  GI50: 1900 nM
  TGI: 3450 nM
HCT-15 colon
  GI50: 1460 nM
  TGI: 2820 nM
UACC-62 melanoma
  GI50: 1890 nM
  TGI: 3940 nM
NCI-H522 lung
  GI50: 2360 nM
  TGI: 8590 nM
SK-OV-3 ovarian
  GI50: 2870 nM
  TGI: 11600 nM
DU-145 prostate
  GI50: 1470 nM
  TGI: 3040 nM
MCF7 breast
  GI50: 514 nM
  TGI: 11400 nM
HT29 colon
  GI50: 1490 nM
  TGI: 2850 nM
SN12C renal
  GI50: 1530 nM
  TGI: 2900 nM
NCI-H460 NSCLC
  GI50: 1480 nM
  TGI: 2900 nM
CCRF-CEM leukemia
  GI50: 1580 nM
  TGI: 2960 nM
M14 melanoma
  GI50: 3420 nM
  TGI: 14300 nM
HOP-62 NSCLC
  GI50: 1550 nM
  TGI: 2950 nM
MDA-MB-435 melanoma
  GI50: 1530 nM
  TGI: 4460 nM
SNB-19 CNS
  GI50: 1980 nM
  TGI: 4380 nM
SK-MEL-5 melanoma
  GI50: 1560 nM
  TGI: 6100 nM
786-0 renal
  GI50: 1820 nM
  TGI: 3310 nM
T-47D breast
  GI50: 1900 nM
  TGI: 4050 nM
HOP-92 NSCLC
  GI50: 1520 nM
  TGI: 5050 nM
NCI-H23 lung
  GI50: 1160 nM
  TGI: 12400 nM
HCT-116 colon
  GI50: 1490 nM
  TGI: 2990 nM
MDA-MB-231 breast
  GI50: 1480 nM
  TGI: 2990 nM
SW-620 colon
  GI50: 1870 nM
  TGI: 5300 nM
K-562 leukemia
  GI50: 1370 nM
  TGI: 2770 nM
IGROV1 ovarian
  GI50: 5770 nM
  TGI: 19600 nM
KM12 colon
  GI50: 40.8 nM
  TGI: 1010 nM
RPMI-8226 leukemia
  GI50: 1560 nM
  TGI: 2970 nM
CAKI-1 renal
  GI50: 2460 nM
  TGI: 9910 nM
UACC-257 melanoma
  GI50: 1940 nM
  TGI: 4300 nM
EKVX NSCLC
  GI50: 1430 nM
  TGI: 3940 nM
UO-31 renal
  GI50: 10400 nM
  TGI: 22300 nM
MALME-3M melanoma
  GI50: 1290 nM
  TGI: 2680 nM
MDA-MB-468 breast
  GI50: 1640 nM
  TGI: 3650 nM
ACHN renal
  GI50: 2630 nM
  TGI: 8820 nM
SF-268 CNS
  GI50: 1710 nM
  TGI: 3260 nM
A549 NSCLC
  GI50: 1740 nM
  TGI: 3390 nM
HL-60(TB) leukemia
  GI50: 538 nM
  TGI: 1880 nM
SK-MEL-2 melanoma
  GI50: 3880 nM
  TGI: 5810 nM
SF-295 CNS
  GI50: 1630 nM
  TGI: 3000 nM
NCI-H226 lung
  GI50: 1480 nM
  TGI: 8440 nM
MOLT-4 leukemia
  GI50: 1650 nM
  TGI: 3350 nM
OVCAR-4 ovarian
  GI50: 4220 nM
  TGI: 17200 nM
BT-549 breast
  GI50: 1950 nM
  TGI: 3460 nM
NCI/ADR-RES ovarian
  GI50: 1990 nM
  TGI: 4430 nM
SF-539 CNS
  GI50: 2040 nM
  TGI: 4760 nM
U251 glioblastoma
  GI50: 1550 nM
  TGI: 2910 nM
SR leukemia
  GI50: 1230 nM
  TGI: 2510 nM
NCI-H322M lung
  GI50: 1840 nM
  TGI: 3970 nM
TK-10 renal
  GI50: 1500 nM
  TGI: 3140 nM
SNB-75 CNS
  GI50: 2160 nM
  TGI: 4810 nM
A498 renal
  GI50: 1840 nM
  TGI: 3310 nM
OVCAR-5 ovarian
  GI50: 1400 nM
  TGI: 3330 nM
OVCAR-3 ovarian
  GI50: 1390 nM
  TGI: 2930 nM
COLO 205 colon
  GI50: 1300 nM
  TGI: 2590 nM
HS 578T breast
  GI50: 1650 nM
  TGI: 3110 nM
SK-MEL-28 melanoma
  GI50: 2370 nM
  TGI: 8160 nM
PC-3 prostate
  GI50: 1450 nM
  TGI: 2790 nM
HCC-2998 colon
  GI50: 1280 nM
  TGI: 2580 nM
RXF 393 renal
  GI50: 2930 nM
  TGI: 8110 nM

From PubChem BioAssay (NCI)
